Data set [1] can be described thus: Particle size of lipid particles (no nucleic acid). Format: physicochemical. To be noted: lipid particles without nucleic acid; compound/DSPC/cholesterol/DMG-PEG2000 molar ratio 50/10/38.5/1.5; ELS-Z2. On the procedure:
The compounds described in Examples 1, 9, and 10,1,2-distearoyl-sn-glycero-3-phosphocholine (trade name: COATSOME® MC-8080; NOF corporation), cholesterol (trade name: Cholesterol HP; NIPPON FINE CHEMICAL CO., LTD.), and 1,2-dimyristoyl-rac-glycero-3-(methylpolyoxyethylene 2000) (hereinafter, called DMG-PEG2000) (trade name: SUNBRIGHT® GM-020; NOF corporation) were dissolved in ethanol at a molar ratio of 50/10/38.5/1.5 such that the total lipid concentration became 20 mmol/L, thereby obtaining an oil phase.
A 10 mmol/L acetate buffer having a pH of 4 was used as a water phase and mixed with the oil phase by a micromixer (see JP5288254B) using a syringe pump such that the volume ratio of water phase:oil phase became 6.7:3.3. The mixed solution was diluted 2× with a phosphate buffered saline (PBS), thereby obtaining a dispersion liquid of lipid particles. The dispersion liquid was dialyzed using a dialysis cassette (Slide-A-Lyzer G2, MWCO: 10 kD, Thermo Fisher Scientific) including PBS such that ethanol was removed, thereby obtaining lipid particles containing the compounds described in Examples 1, 9, and 10.
By using the dispersion liquid of lipid particles as it was, the particle size of the lipid particles was measured using a zeta potential/particle size measurement system ELS-Z2 (Otsuka Electronics Co., Ltd.).

Data set [2] is described as follows: Particle size of nucleic acid lipid particles (Luc2-siRNA). Format: physicochemical. To be noted: compound/DSPC/cholesterol/DMG-PEG2000 50/10/38.5/1.5. The procedure, abridged:
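Lipid particles formed from oil phase (test lipid/DSPC/cholesterol/DMG-PEG2000, 50/10/38.5/1.5 molar, 20 mmol/L total in ethanol) micromixed 1:3 with Luc2-siRNA in pH 4 acetate buffer (19.7 μmol/L); siRNA/lipid 339 mol/mol, PBS-diluted and dialyzed. Size measured on ELS-Z2 dynamic light scattering.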

A short description of data set [3]: Encapsulation rate of siRNA in nucleic acid lipid particles (Luc2-siRNA). The following applies: compound/DSPC/cholesterol/DMG-PEG2000 50/10/38.5/1.5. Format: physicochemical. In a few lines:
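Encapsulation rate was calculated as (total − outer-phase siRNA)/total ×100. Total siRNA was quantified spectrophotometrically after lipid-dissolving ethanol precipitation, and unencapsulated siRNA by RiboGreen in TE (ex 485/em 535 nm). The particles were test lipid/DSPC/cholesterol/DMG-PEG2000 at 50/10/38.5/1.5, formed by microfluidic mixing with Luc2-siRNA at pH 4 and dialyzed against PBS.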

Data set [4] deals with DMS273 cells constantly expressing Luc. The experiment in a line: Target reporter protein (Luc) knockdown in cell, reporter protein assay. Format: cell-based. The following applies: Homo sapiens, DMS-273; Luc2-siRNA lipid particles using the compound; siRNA 0.1 to 100 nmol/L; concentration at which Luc expression is knocked down to 50%; read-out: IC50. In a few lines: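 Nucleic acid lipid particles added at final 0.1 to 100 nmol/L to DMS273 human SCLC cells stably expressing Luc2, 24 hr exposure then 24 hr further culture after medium change. Luc quantified by Steady Glo luminescence after viable cell count; knockdown efficiency calculated and IC50 taken as concentration giving 50% Luc reduction.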

By IC50 is commonly meant the concentration at which inhibition is half-maximal. For the compound `CCCCC/C=C\C/C=C\CCCCCCCCN(CCCCCCCC/C=C\C/C=C\CCCCC)C(=O)OCCN(C)CCN(C)C` [Example 1, 2-((2-(dimethylamino)ethyl)(methyl)amino)ethyl di((9Z,12Z)-octadeca-9,12-dien-1-yl)carbamate], the “Particle size (nm)” value in data set [1] is given as 145.9 nm; in data set [2], 66.4 nm. In addition, in data set [3], the “Nucleic acid encapsulation rate” value turned out to be 84%. Further, the IC50 in data set [4] was determined as 0.013 µM.

As to `CCCCC/C=C\C/C=C\CCCCCCCCN(CCCCCCCC/C=C\C/C=C\CCCCC)C(=O)OCCNCCN` [Example 9, 2-((2-aminoethyl)amino)ethyl di((9Z,12Z)-octadeca-9,12-dien-1-yl)carbamate], the “Particle size (nm)” value in data set [1] is 127.5 nm; in data set [2], 79.5 nm. Also, in data set [3], the “Nucleic acid encapsulation rate” value was 92%. For the same compound, the half-inhibitory concentration (IC50) in data set [4] came to 0.021 µM.

These data come from patent publication US12370143B2, “Compound or salt thereof and lipid particles” (FUJIFILM Corporation, priority 2018, dated 2025).
